# Earlier results in patent US9226944B2, “Herbal preparation for sleep apnea relief” (priority 2008, dated 2016).
# Details: combined with the plant vs freed from the other constituents; heat accelerates decomposition
structure (smiles),measurement,value
"CN1C(CC(=O)c2ccccc2)CCCC1CC(O)c1ccccc1 (stereo not shown) [Lobeline, 2-[6-(2-hydroxy-2-phenyl-ethyl)-1-methyl-2-piperidyl]-1-phenyl-ethanone]",stability of lobeline,decomposes when freed from contact with the other constituents of the plant
